{"source": "patent US20260248918A1", "about": "“COMPOSITIONS AND METHODS OF SUPPRESSING AVERSIVENESS OF PHARMACEUTICALS AND INGESTIBLE MATERIALS” (Monell Chemical Senses Center, priority 2019, published 2026)", "key": {"hTBEC cells": {"system": "hTBEC cells", "test": "hTBEC bioassay: antagonism of bitter-drug stimulation of human taste bud cells", "format": "cell-based", "conditions": "for IC50: Homo sapiens; for % maximum inhibition: at 50 μM antagonist", "protocol": "FIGS. 12A and 12B show concentration-response curves or relationships (CRCs) for antagonism of TAF or piperaquine stimulation of hTBEC cells with an optimal concentration of each bitter-tasting medicine in vitro. Each inhibition curve was fitted to the data so as to calculate an IC50 or the concentration that inhibits 50% of the signal. A Hill slope was calculated, along with the % maximal inhibition and the concentration of antagonist, 6-methylflavone, (indicated by the ref ST069348) required to fully block the response in the assay. These metrics were slightly different for antagonism by 6 -methylflavone of TAF versus piperaquine. FIG. 12A is a graph showing the suppression of human taste bud cells (hTBEC) cells with 6-methylflavone added to 300 micromolar TAF stimulated cells. […] FIG. 12B is a graph showing the suppression of hTBEC cells with 6-methylflavone added to 100 micromolar Piperaquine stimulated cells. IC50 is 2.0 μM for 6-methylflavone antagonism of Piperaquine stimulation.\nUsing a primary hTBEC platform, a high throughput screening (HTS) was conducted with more than 2,000 small molecular weight purified phytochemicals and botanical extracts. The screen identified 40 antagonists that suppressed taste cell activation by target APIs. […] TAS2R1 is responsive to piperaquine and tenofovir. (See FIG. 4)"}, "[1]": {"system": "Benzodiazepine receptor (gamma-aminobutyric acid receptor subunit)", "conditions": "rat cortical membranes; cited from earlier work"}, "TAS2R39": {"target": "T1, TAS2R39 (Homo sapiens, UniProt P59534)", "T1 sequence (P59534 1-338)": "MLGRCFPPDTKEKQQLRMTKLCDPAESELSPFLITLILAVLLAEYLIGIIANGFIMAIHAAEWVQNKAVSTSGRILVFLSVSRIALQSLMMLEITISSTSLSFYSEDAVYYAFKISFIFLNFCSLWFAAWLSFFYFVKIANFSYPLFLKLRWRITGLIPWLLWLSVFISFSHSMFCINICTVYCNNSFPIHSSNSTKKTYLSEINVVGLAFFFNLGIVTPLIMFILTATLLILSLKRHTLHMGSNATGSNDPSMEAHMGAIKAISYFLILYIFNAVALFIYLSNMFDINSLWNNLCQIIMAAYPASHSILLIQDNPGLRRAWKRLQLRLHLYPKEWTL", "test": "Blocking of TAS2R39 activity (HEK/TAS2R39) stimulated by Piperaquine or Tenofovir", "format": "cell-based", "set-up": "expressed in transfected cells; host or cells: HEK", "conditions": "0.1 mM blocker", "protocol": "FIG. 5A is a bar graph showing that the blocker 6-methylflavone (indicated by the arrow number 2) blocks the activity of taste receptor TAS2R39 to Piperaquine. Other blockers are unidentified compounds identified by the numbers following the concentrations under the X axis. Five candidates from the HTS screen blocked the activity of TAS2R39 to Piperaquine.\nFIG. 5B is a graph plotting the activity of taste receptor HEK/TAS2R39 in the presence of 0.5 mM Piperaquine (bold black line); the combination of 0.5 mM Piperaquine and 0.1 mM of 6-methylflavone (light gray line), and a control with 0.1 mM of the blocker 6-methylflavone (dotted line).\nOther blockers are identified by the numbers following the concentrations under the X axis.\nFIG. 7B is a graph plotting the activity of taste receptor TAS2R39 in the presence of 1 mM Tenofovir (bold black line); the combination of 1 mM Tenovir and 0.1 mM of 6-methylflavone (light gray line), and a control with 0.1 mM of the blocker 6-methylflavone (dotted line)."}, "TAS2R1": {"target": "T2, TAS2R1 (Homo sapiens, UniProt Q9NYW7)", "T2 sequence (Q9NYW7 1-299)": "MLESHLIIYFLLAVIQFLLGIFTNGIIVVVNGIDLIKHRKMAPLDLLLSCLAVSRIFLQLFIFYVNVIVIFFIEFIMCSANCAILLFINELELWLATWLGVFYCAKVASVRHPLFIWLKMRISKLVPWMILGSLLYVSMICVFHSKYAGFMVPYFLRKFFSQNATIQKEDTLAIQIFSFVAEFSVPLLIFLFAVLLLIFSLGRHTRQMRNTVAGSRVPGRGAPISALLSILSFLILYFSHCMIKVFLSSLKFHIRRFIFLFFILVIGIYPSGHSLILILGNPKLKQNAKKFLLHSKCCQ", "test": "Blocking of TAS2R1 response to the APIs", "format": "cell-based", "conditions": "data not shown"}, "androgen receptor": {"system": "androgen receptor", "conditions": "human MDA-kb2 cells; cited from earlier work"}}, "note": "Entries after “also recorded” stand apart in the source; their conditions may differ. Read-outs that look alike come from different tables or passages of the source."}
{"smiles": "Cc1ccc2oc(-c3ccccc3)cc(=O)c2c1", "note": "[6-methylflavone]", "values": [{"measurement": "IC50", "setting": "hTBEC cells; hTBEC cells stimulated with 100 micromolar Piperaquine, FIG. 12B, read-out: IC50 for antagonism of Piperaquine stimulation", "result": 2, "unit": "µM"}, {"measurement": "IC50", "setting": "hTBEC cells; hTBEC cells stimulated with 300 micromolar TAF, FIG. 12A, read-out: IC50 for antagonism of TAF stimulation", "result": 7.7, "unit": "µM"}, {"measurement": "% maximum inhibition", "setting": "hTBEC cells; 100 micromolar Piperaquine stimulated hTBEC cells, FIG. 12B", "result": "> 95", "unit": "%"}, {"measurement": "% maximum inhibition", "setting": "hTBEC cells; 300 micromolar TAF stimulated hTBEC cells, FIG. 12A", "result": "> 95", "unit": "%"}, {"measurement": "Hill slope", "setting": "hTBEC cells; hTBEC cells stimulated with 100 micromolar Piperaquine, FIG. 12B", "result": 1.992}, {"measurement": "Hill slope", "setting": "hTBEC cells; hTBEC cells stimulated with 300 micromolar TAF, FIG. 12A", "result": 2.18}, {"measurement": "Blocking the stimulation of hTBEC cells by bitter tasting drugs", "setting": "hTBEC cells; stimulated by TAF, racemic praziquantel and piperaquine", "result": "quite potent and effective"}, {"measurement": "In vitro affinity against Benzodiazepine receptor binding", "setting": "[1]", "result": "active"}, {"measurement": "Inhibition of TAS2R39 activity to Piperaquine", "setting": "TAS2R39; 0.5 mM Piperaquine, FIG. 5A/5B", "result": "powerful antagonist; also recorded: strong inhibition"}, {"measurement": "Inhibition of TAS2R39 activity in response to Tenofovir (TAF)", "setting": "TAS2R39; 1 mM Tenofovir, FIG. 7A/7B", "result": "powerful antagonist; also recorded: completely inhibited"}, {"measurement": "Inhibition of TAS2R1", "setting": "TAS2R1; FIG. 5A legend (Piperaquine)", "result": "did not inhibit"}, {"measurement": "Inhibition of the response of TAS2R1 to TAF", "setting": "TAS2R1; FIG. 7B legend", "result": "did not inhibit"}, {"measurement": "Agonist activity at androgen receptor, stimulation of luciferase activity", "setting": "androgen receptor", "result": "agonist activity"}]}
